These are literature values, as cited in publication PMC6816764 (Journal of the American Chemical Society, 2018).

For series [1] the following is noted: cited from earlier work.
For series [2] the following is noted: in nitrogen-sparged H2O; cited from earlier work.

On to [Ru(tpy)(dppn)(py)]^2+, for which the 1O2 production efficiency in series [1] (ref 58a) was 98%.

Turning to `[Ru+2].c1ccc(-c2ccccn2)nc1.c1ccc(-c2ccccn2)nc1.c1ccc(-c2ccccn2)nc1` [[Ru(bpy)3]^2+], the ΦΔ of standard in series [1] (in CH3OH) is given as 0.81. The Φem of reference in series [2] is listed as 0.042.
